Data taken from ChEMBL document CHEMBL3885861, “Open TG-GATES”.
Values joined by “and” are separate entries in the source; they are usually repeats but may differ in a detail not shown here. Equal entries are not always repeated.

Species: Rattus norvegicus
Assay: Open TG-GATES - Regimen: Single
Assay type: toxicity, organism-based, Sprague-Dawley
Design: regimen Single, gender Male, age 6 weeks
Conditions: in vivo, po, 0 mg/kg, route gavage, dose level Control; for APTT / Bas / Eos / Fbg / Hb / Ht / Lym / MCH / MCHC / MCV / Mono / Neu / PT / Plat / RBC / Ret / WBC: tissue Blood; for KIDNEY_L / KIDNEY_R / KIDNEY_TOTAL: tissue Kidney; for LIVER: tissue Liver; for A/G / ALP / ALT / AST / BUN / CRE / Ca / Cl / GLC / IP / K / LDH / Na / PL / RALB / TBIL / TC / TG / TP / gamma-GTP / DBIL: tissue Plasma

Q: What does the source list for `COc1ccc2c(c1)c(CC(=O)O)c(C)n2C(=O)c1ccc(Cl)cc1` [INDOMETHACIN]?
A: TERMINAL_BW (3 h): 201 g and 226.5 g; APTT (3 h): 16.8 s and 19.8 s; Bas (3 h): 0% and 0.2%; Eos (3 h): 0.6% and 1%; Fbg (3 h): 201.6 mg/dL and 227.8 mg/dL; Hb (3 h): 13.6 g/dL and 13.9 g/dL; Ht (3 h): 40.8% and 38.7%; Lym (3 h): 80% and 80.4%; MCH (3 h): 21.9 pg and 22.5 pg; MCHC (3 h): 33.2% and 35.9%; MCV (3 h): 66 fL and 62.6 fL; Mono (3 h): 10.2% and 2.4%; Neu (3 h): 9.6% and 15%; PT (3 h): 12.8 s and 11.9 s; Plat (3 h): 109 x10_4/uL and 118.1 x10_4/uL; RBC (3 h): 618.8 x10_4/ul; Ret (3 h): 10.2% and 7.9%; WBC (3 h): 108.5 x10_2/uL and 100.3 x10_2/uL; KIDNEY_L (3 h): 0.9 g and 1 g; KIDNEY_R (3 h): 0.9 g and 1 g; KIDNEY_TOTAL (3 h): 1.8 g and 2 g; LIVER (3 h): 9.4 g and 10 g; A/G (3 h): 1.6 and 1.8; ALP (3 h): 1191.4 IU/L and 1059 IU/L; ALT (3 h): 39 IU/L and 32.2 IU/L; AST (3 h): 69.6 IU/L and 71.8 IU/L; BUN (3 h): 12.2 mg/dL and 11.8 mg/dL; CRE (3 h): 0.5 mg/dL and 0.4 mg/dL; Ca (3 h): 10.6 mg/dL and 10.7 mg/dL; Cl (3 h): 105.6 meq/L and 103 meq/L; GLC (3 h): 194.4 mg/dL and 209.4 mg/dL; IP (3 h): 10 mg/dL and 9.2 mg/dL; K (3 h): 5.1 meq/L and 4.1 meq/L; LDH (3 h): 104.8 IU/L and 217.4 IU/L; Na (3 h): 137.8 meq/L and 141 meq/L; PL (3 h): 129.4 mg/dL and 135 mg/dL; RALB (3 h): 3.8 g/dL and 3.4 g/dL; TBIL (3 h): 0.3 mg/dL and 0.1 mg/dL; TC (3 h): 74.8 mg/dL and 73.8 mg/dL; TG (3 h): 56.2 mg/dL and 67.4 mg/dL; TP (3 h): 6.1 g/dL and 5.4 g/dL; gamma-GTP (3 h): 1.2 IU/L; TERMINAL_BW (6 h): 197.2 g and 224 g; APTT (6 h): 17.5 s and 19.1 s; Bas (6 h): 0%; Eos (6 h): 0.8%; Fbg (6 h): 209.2 mg/dL and 225.2 mg/dL; Hb (6 h): 13.6 g/dL and 13.8 g/dL; Ht (6 h): 41% and 38.1%; Lym (6 h): 78.2% and 80%; MCH (6 h): 21.9 pg and 22.3 pg; MCHC (6 h): 33.1% and 36.4%; MCV (6 h): 66.2 fL and 61.3 fL; Mono (6 h): 6.8% and 2.8%; Neu (6 h): 14.2% and 15%; PT (6 h): 12.7 s and 12.2 s; Plat (6 h): 104.7 x10_4/uL and 120.1 x10_4/uL; RBC (6 h): 619.4 x10_4/ul and 621.8 x10_4/ul; Ret (6 h): 9.3% and 7.9%; WBC (6 h): 111.4 x10_2/uL and 85.5 x10_2/uL; KIDNEY_L (6 h): 0.9 g; KIDNEY_R (6 h): 0.9 g; KIDNEY_TOTAL (6 h): 1.8 g and 1.9 g; LIVER (6 h): 8.4 g and 9.5 g; A/G (6 h): 1.7 and 1.6; ALP (6 h): 1101.4 IU/L and 861.4 IU/L; ALT (6 h): 34.2 IU/L and 31.6 IU/L; AST (6 h): 68.4 IU/L and 67.8 IU/L; BUN (6 h): 11.6 mg/dL and 9.6 mg/dL; CRE (6 h): 0.5 mg/dL and 0.4 mg/dL; Ca (6 h): 10.1 mg/dL and 10.8 mg/dL; Cl (6 h): 106 meq/L and 102.8 meq/L; DBIL (6 h): 0.032 mg/dL and 0.078 mg/dL; GLC (6 h): 193.2 mg/dL and 193.8 mg/dL; IP (6 h): 9.8 mg/dL and 9.4 mg/dL; K (6 h): 4.8 meq/L and 4.1 meq/L; LDH (6 h): 77.2 IU/L and 197.4 IU/L; Na (6 h): 137.2 meq/L and 140.6 meq/L; PL (6 h): 119.2 mg/dL and 136.4 mg/dL; RALB (6 h): 3.8 g/dL and 3.4 g/dL; TBIL (6 h): 0.3 mg/dL and 0.1 mg/dL; TC (6 h): 69.2 mg/dL and 73.4 mg/dL; TG (6 h): 39 mg/dL and 70.6 mg/dL; TP (6 h): 6 g/dL and 5.5 g/dL; gamma-GTP (6 h): 1.8 IU/L and 1 IU/L; TERMINAL_BW (9 h): 196.5 g and 222.5 g; APTT (9 h): 16.7 s and 17.7 s; Bas (9 h): 0%; Eos (9 h): 0.4% and 1%; Fbg (9 h): 211.2 mg/dL and 229.6 mg/dL; Hb (9 h): 13.2 g/dL and 13.5 g/dL; Ht (9 h): 40% and 36.8%; Lym (9 h): 82.8% and 78.6%; MCH (9 h): 21.7 pg and 22.4 pg; MCHC (9 h): 33.1% and 36.7%; MCV (9 h): 65.6 fL and 61.1 fL; Mono (9 h): 6.4% and 2.8%; Neu (9 h): 10.2% and 16.6%; PT (9 h): 12.5 s; Plat (9 h): 100.8 x10_4/uL and 126.3 x10_4/uL; RBC (9 h): 610 x10_4/ul and 603.4 x10_4/ul; Ret (9 h): 10.2% and 8.2%; WBC (9 h): 121.1 x10_2/uL and 84 x10_2/uL; KIDNEY_L (9 h): 0.9 g and 1 g; KIDNEY_R (9 h): 0.9 g and 1 g; KIDNEY_TOTAL (9 h): 1.9 g; LIVER (9 h): 8.1 g and 8.7 g; A/G (9 h): 2.5 and 1.7; ALP (9 h): 901.4 IU/L and 851.8 IU/L; ALT (9 h): 33.8 IU/L and 28.6 IU/L; AST (9 h): 68.8 IU/L and 64.8 IU/L; BUN (9 h): 12.4 mg/dL and 9.6 mg/dL; CRE (9 h): 0.5 mg/dL and 0.4 mg/dL; Ca (9 h): 10.2 mg/dL and 10.5 mg/dL; Cl (9 h): 107 meq/L and 104.2 meq/L; DBIL (9 h): 0.042 mg/dL and 0.072 mg/dL; GLC (9 h): 191 mg/dL and 209 mg/dL; IP (9 h): 10.3 mg/dL; K (9 h): 5.1 meq/L and 3.8 meq/L; LDH (9 h): 98.8 IU/L and 189 IU/L; Na (9 h): 138 meq/L and 142.4 meq/L; PL (9 h): 137.6 mg/dL and 129.2 mg/dL; RALB (9 h): 3.9 g/dL and 3.5 g/dL; TC (9 h): 81 mg/dL and 72.4 mg/dL; TG (9 h): 43.4 mg/dL and 45.8 mg/dL; TP (9 h): 5.4 g/dL and 5.6 g/dL; gamma-GTP (9 h): 2 IU/L and 1 IU/L; TERMINAL_BW (24 h): 215.4 g and 240.9 g; APTT (24 h): 16.7 s and 18.2 s; Bas (24 h): 0% and 0.8%; Eos (24 h): 1% and 0.6%; Fbg (24 h): 218.4 mg/dL and 222.8 mg/dL; Hb (24 h): 13.5 g/dL and 13.2 g/dL; Ht (24 h): 41.1% and 38.2%; Lym (24 h): 79% and 79.8%; MCH (24 h): 21.6 pg and 21.5 pg; MCHC (24 h): 33% and 34.4%; MCV (24 h): 65.5 fL and 62.4 fL; Mono (24 h): 10.4% and 2.6%; Neu (24 h): 9.4% and 15.6%; PT (24 h): 12.1 s and 11.5 s; Plat (24 h): 95.4 x10_4/uL and 128.4 x10_4/uL; RBC (24 h): 627.4 x10_4/ul and 612.4 x10_4/ul; Ret (24 h): 9.1% and 6.5%; WBC (24 h): 106.5 x10_2/uL and 112.4 x10_2/uL; KIDNEY_L (24 h): 1 g; KIDNEY_R (24 h): 1 g; KIDNEY_TOTAL (24 h): 2 g
